Tests used:
Assay in all cases: Test G mixtures of Compound 26 with crop safeners, postemergence plant response
Format in all cases: in vivo
Details in all cases: applied alone
[1] = system: winter barley (HORVX, Hordeum vulgare)
Method: (§1) This test evaluated the effect of mixtures of Compound 26 with commercial crop safeners cloquintocet-mexyl, mefenpyr-diethyl, and fenchlorazole-ethyl on three plant species. Seeds of winter wheat (TRZAW, Triticum aestivum), winter barley (HORVX, Hordeum vulgare), and wild oat (AVEFA, Avena fatua) (a weed) were planted into a silt loam soil. Plants from these seeds were treated postemergence using test chemicals formulated in a non-phytotoxic solvent mixture that included a surfactant. Plants ranged in height from 6 to 10 cm (2- to 3-leaf stage).
(§2) Plants were grown in a greenhouse using supplemental lighting to maintain a photoperiod of about 14 hours; daytime and nighttime temperatures were about 22-26° C. and 15-19° C., respectively. Balanced fertilizer was applied through the watering system. Treatments consisted of Compound 26 and the above mentioned safeners alone and in combination using a spray volume of 281 L/ha. Each treatment was replicated four times. Treated plants and controls were maintained in a greenhouse for 15 days, after which time all treated plants were compared to controls and visually evaluated. Plant response ratings were calculated as the means of the four replicates based on a scale of 0 to 100 where 0 is no effect and 100 is complete control and are summarized in Tables G1 to G3. Because the safeners alone caused no injury at the rates tested, the expected effect of a mixture of Compound 26 with a safener is the same as the observed effect of Compound 26 alone.
(§3) The highest application rate of each safener was tested alone to confirm the absence of herbicidal activity on the test species when appled postemergence at 125 g ai/ha. Therefore, an extrapolated result of zero for each safener alone at 16, 31, or 62 g ai/ha was used to calculate the mixture response of Compound 26 and these safener application rates.

[2] = system: wild oat (AVEFA, Avena fatua)
Method: as §1, §2, §3

[3] = system: winter wheat (TRZAW, Triticum aestivum)
Method: as §1, §2, §3

Which “HORVX Obsd. (observed effect) plant response rating, scale 0 to 100” value ([1]; 62 g a.i./ha) does the source give for `CCc1c(C)c(-c2ccc(Cl)cc2)nn1-c1c(O)cnn(C)c1=O` [Compound 26, 4-[3-(4-chlorophenyl)-5-ethyl-4-methyl-1H-pyrazol-1-yl]-5-hydroxy-2-methyl-3(2H)-pyridazinone] here?
The value was 19.

And the “HORVX Obsd. (observed effect) plant response rating, scale 0 to 100” value ([1]; 125 g a.i./ha)?
The value was 34.

And the “HORVX Obsd. (observed effect) plant response rating, scale 0 to 100” value ([1]; 250 g a.i./ha)?
The value was 45.

What about the “AVEFA Obsd. (observed effect) plant response rating, scale 0 to 100” value ([2]; 62 g a.i./ha) of the same compound?
The value was 89.

And the “AVEFA Obsd. (observed effect) plant response rating, scale 0 to 100” value ([2]; 125 g a.i./ha)?
The value was 97.

And the “AVEFA Obsd. (observed effect) plant response rating, scale 0 to 100” value ([2]; 250 g a.i./ha)?
Its value is 99.

And the “TRZAW Obsd. (observed effect) plant response rating, scale 0 to 100” value ([3]; 62 g a.i./ha)?
The value was 10.

What about the “TRZAW Obsd. (observed effect) plant response rating, scale 0 to 100” value ([3]; 125 g a.i./ha) of the same compound?
Its value is 9.

And the “TRZAW Obsd. (observed effect) plant response rating, scale 0 to 100” value ([3]; 250 g a.i./ha)?
Its value is 36.

From patent US20100267561A1, “HERBICIDAL PYRIDAZINONE DERIVATIVES” (priority 2007, published 2010)
